Assay [1] deals with T1, Cathepsin S (Homo sapiens, UniProt P25774). Description: Inhibition of human recombinant cathepsin S expressed in baculovirus by FRET assay.
In assay [2] the target is T1, Cathepsin S. Description: Inhibition of cathepsin S in human JY cells assessed as invariant chain li degradation by Western blotting. It counts as cell-based.

T1 sequence (P25774 whole entry): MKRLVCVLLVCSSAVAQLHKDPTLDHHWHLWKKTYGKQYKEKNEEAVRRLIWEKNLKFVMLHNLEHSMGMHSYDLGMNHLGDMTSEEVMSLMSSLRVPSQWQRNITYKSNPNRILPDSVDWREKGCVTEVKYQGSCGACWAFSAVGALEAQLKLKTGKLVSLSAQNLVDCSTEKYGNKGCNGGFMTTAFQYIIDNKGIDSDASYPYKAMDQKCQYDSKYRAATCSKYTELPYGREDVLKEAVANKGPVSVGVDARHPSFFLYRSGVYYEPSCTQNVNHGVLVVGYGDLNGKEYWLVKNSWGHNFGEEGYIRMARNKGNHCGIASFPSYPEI

`CC(C)(C)OC(=O)N1CCN(CC(O)Cn2nc(-c3ccc(Cl)c(C#Cc4ccc(Cl)cc4)c3)c3c2CCN(S(C)(=O)=O)C3)CC1` (centres undefined): the IC50 on Cathepsin S [1] was 150 nM; at Cathepsin S [2], above 10000 nM. Regarding `Cc1ccc(CNCc2ccc(C#Cc3cc(-c4nn(CCCN5CCOCC5)c5c4CN(S(C)(=O)=O)CC5)ccc3Cl)cc2)cc1`, the IC50 on Cathepsin S [2] amounted to 1100 nM. Regarding `CS(=O)(=O)N1CCc2c(c(-c3ccc(Cl)c(C#Cc4ccc(CN)cc4)c3)nn2CCCN2CCOCC2)C1`, the results for the IC50 on Cathepsin S [1] and on Cathepsin S [2] were 490 nM and 10000 nM, respectively. As to `CN(Cc1ccccc1)Cc1ccc(C#Cc2cc(-c3nn(CCCN4CCOCC4)c4c3CN(S(C)(=O)=O)CC4)ccc2Cl)cc1`, the IC50 on Cathepsin S [1] was 600 nM; on Cathepsin S [2], above 10000 nM.

On to `CS(=O)(=O)N1CCc2c(c(-c3ccc(Cl)c(C#Cc4ccc(CNCCc5ccccc5)cc4)c3)nn2CCCN2CCOCC2)C1`, for which, at Cathepsin S [2], the IC50 came to 5700 nM. On to `CS(=O)(=O)N1CCc2c(c(-c3ccc(Cl)c(C#Cc4ccc(CNC(=O)c5ccccc5)cc4)c3)nn2CCCN2CCOCC2)C1`, for which the IC50 on Cathepsin S [2] is above 10000 nM.

As to `CS(=O)(=O)N1CCc2c(c(-c3ccc(Cl)c(C#Cc4ccc(CNCc5ccc(Cl)c(Cl)c5)cc4)c3)nn2CCCN2CCOCC2)C1`, the IC50 on Cathepsin S [2] amounted to 1800 nM. Consider `CS(=O)(=O)N1CCc2c(c(-c3ccc(Cl)c(C#Cc4ccc(Cl)cc4)c3)nn2CC(O)CN2CCNCC2)C1` (centres undefined), for which the results for the IC50 at Cathepsin S [1] and at Cathepsin S [2] were 380 nM and above 10000 nM, respectively. Take `CS(=O)(=O)N1CCc2c(c(-c3ccc(Cl)c(C#Cc4ccc(Cl)cc4)c3)nn2C[C@@H](O)CN2CCC(C3CCNCC3)CC2)C1`: at Cathepsin S [2], the IC50 is 200 nM. Consider `COC(=O)[C@H](NCc1ccc(C#Cc2cc(-c3nn(CCCN4CCOCC4)c4c3CN(S(C)(=O)=O)CC4)ccc2Cl)cc1)c1ccccc1`, for which the IC50 on Cathepsin S [1] is 100 nM; on Cathepsin S [2] it was above 10000 nM.

Take `CS(=O)(=O)N1CCc2c(c(-c3ccc(Cl)c(C#Cc4ccc(Cl)cc4)c3)nn2CC(O)CN2CCCCC2)C1` (centres undefined): the IC50 at Cathepsin S [2] was above 10000 nM. Take `CC(C)(C)OC(=O)N1CCC(C2CCN(C[C@H](O)Cn3nc(-c4ccc(Cl)c(C#Cc5ccc(Cl)cc5)c4)c4c3CCN(S(C)(=O)=O)C4)CC2)CC1`: the half-inhibitory concentration (IC50) on Cathepsin S [2] is above 10000 nM.

In the case of `CC(=O)N1CCC(C2CCN(C[C@H](O)Cn3nc(-c4ccc(Cl)c(C#Cc5ccc(Cl)cc5)c4)c4c3CCN(S(C)(=O)=O)C4)CC2)CC1`, the IC50 on Cathepsin S [2] was determined as 10000 nM. On to `CS(=O)(=O)N1CCc2c(c(-c3ccc(Cl)c(C#Cc4ccc(CNCc5ccccc5)cc4)c3)nn2CCCN2CCOCC2)C1`, for which the IC50 at Cathepsin S [1] worked out at 420 nM; on Cathepsin S [2] it was 4200 nM. Consider `CS(=O)(=O)N1CCc2c(c(-c3ccc(Cl)c(C#Cc4ccc(CNS(=O)(=O)c5ccccc5)cc4)c3)nn2CCCN2CCOCC2)C1`, for which the IC50 on Cathepsin S [1] was 160 nM; on Cathepsin S [2], above 10000 nM. Regarding `COC(=O)[C@@H](NCc1ccc(C#Cc2cc(-c3nn(CCCN4CCOCC4)c4c3CN(S(C)(=O)=O)CC4)ccc2Cl)cc1)c1ccccc1`, at Cathepsin S [2], the concentration for half-maximal inhibition (IC50) is above 10000 nM. Regarding `CS(=O)(=O)N1CCc2c(c(-c3ccc(Cl)c(C#Cc4ccc(CNCc5ccc(Cl)cc5)cc4)c3)nn2CCCN2CCOCC2)C1`, the figures for the IC50 at Cathepsin S [1] and at Cathepsin S [2] were 140 nM and 1500 nM, respectively. For the molecule `CNCc1ccc(C#Cc2cc(-c3nn(CCCN4CCOCC4)c4c3CN(S(C)(=O)=O)CC4)ccc2Cl)cc1`, the IC50 at Cathepsin S [1] is 1300 nM; at Cathepsin S [2], above 10000 nM. For `CN1CCC(C2CCN(C[C@H](O)Cn3nc(-c4ccc(Cl)c(C#Cc5ccc(Cl)cc5)c4)c4c3CCN(S(C)(=O)=O)C4)CC2)CC1`, the half-maximal inhibitory concentration (IC50) at Cathepsin S [2] amounted to 720 nM. Take `COC(=O)C1CCN(CC(O)Cn2nc(-c3ccc(Cl)c(C#Cc4ccc(Cl)cc4)c3)c3c2CCN(S(C)(=O)=O)C3)CC1` (centres undefined): at Cathepsin S [2], the IC50 is above 10000 nM. On to `CS(=O)(=O)N1CCc2c(c(-c3ccc(Cl)c(C#Cc4ccc(Cl)cc4)c3)nn2CC(O)CN2CCOCC2)C1` (centres undefined), for which the IC50 was 140 nM at Cathepsin S [1] and above 10000 nM on Cathepsin S [2]. In the case of `COc1ccc(CNCc2ccc(C#Cc3cc(-c4nn(CCCN5CCOCC5)c5c4CN(S(C)(=O)=O)CC5)ccc3Cl)cc2)cc1`, the IC50 at Cathepsin S [2] was 820 nM.

Consider `CS(=O)(=O)N1CCc2c(c(-c3ccc(Cl)c(C#Cc4ccc(CN[C@@H](CO)c5ccccc5)cc4)c3)nn2CCCN2CCOCC2)C1`, for which the IC50 on Cathepsin S [2] came out at 1700 nM. Still for that read-out and setting: for `CS(=O)(=O)N1CCc2c(c(-c3ccc(Cl)c(C#Cc4ccc(Cl)cc4)c3)nn2CC(O)CN2CCC(C(N)=O)CC2)C1` (centres undefined) the value was above 10000 nM.

As a reminder, the IC50 is the concentration at which inhibition is half-maximal.

(Values after ChEMBL document CHEMBL1154180, “Pyrazole-based arylalkyne cathepsin S inhibitors. Part II: optimization of cellular potency” (Bioorg Med Chem Lett, 2009).)
